Data on two compounds can be found in article PMC9382192, “Combined treatment with epigenetic agents enhances anti-tumor activity of MAGE-D4 peptide-specific T cells by upregulating the MAGE-D4 expression in glioma” (Frontiers in Oncology, 2022).

Common to all, as to format: cell-based, human
One data set relates to T cells. The experiment in a line: CFSE lymphocyte proliferation assay. As to conditions: T cells with peptide-pulsed DCs, 96 h, flow cytometry. How it is done: CFSE assay was used to further detect the proliferation of T cells stimulated by peptide-pulsed DCs. The cells were suspended at 10^6/ml with RPMI1640 and added CFSE (5 μM/ml), then incubated at room temperature for 20 min. Fetal bovine serum (FBS, Gbico, USA) was added and incubated for 5 min to terminate the reaction, washed with PBS twice. Then, the peptide-incubated DC was added, incubated for 96 h, and performed flow cytometry analysis.

For the next data set, the system named is IFN-γ. The experiment in a line: IFN-γ ELISPOT. As to conditions: 1 × 10^6 T cells/well stimulated by peptide-pulsed DCs, 20 h. The method, then:
The number of T cells secreting IFN-γ was measured by ELISPOT using Human IFN-γ precoated ELISPOT kit (Dakewe, Beijing, China). Briefly, RPMI 1640 complete medium was added for 5–10 min to activate the pre-coated plate. T cells (1 × 10^6/well) stimulated by peptide-pulsed DCs were added to each well and incubated in a 37°C 5% CO2 incubator for 20 h. After lysis in cold water, the biotin-labeled antibody was added and incubated at 37°C for 1 h, then the enzyme-labeled avidin was added and incubated at 37°C for 1 h. The spots present in each well were scanned using the CTL ELISPOT analyzer and counted using the ImmunoSpot Professional Software.

Another data set concerns U251. The experiment in a line: LDH cytotoxicity assay and HLA block, U251. The method, then: (§1) The human glioma cell lines (U87-MG and U251) were obtained from the Cell Bank of Type Culture Collection of the Chinese Academy of Science (Shanghai, China). Decitabine (DAC, CAS No. A3656), valproic acid (VPA, CAS No. 99-66-1), and trichostatin A (TSA, CAS No. 58880-19-6) were purchased from Sigma-Aldrich Corporation (St. Louis, MO, USA). DAC and TSA were dissolved in DMSO to a concentration of 10 mM. Aliquots were stored at −80°C and diluted with media before being used. Drug treatments were divided into seven groups: (1) DAC group: cells were cultured in medium on the presence of 1 μM DAC for 120 h; (2) VPA group: cells were grown in medium containing 1 mM VPA for 120 h; (3) TSA group: cells were cultured in medium supplemented with 1 μM TSA for 24 h; (4) D + V group: cells were cultured with 1 μM DAC and 1 mM VPA for 120 h; (5) D + T group: cells were cultured with 1 μM DAC for 120 h, followed by 1 μM TSA for 24 h; (6) Control group: cells were cultured with 0.09% DMSO, which is the highest concentration of DMSO used in this study in consideration of the potential toxicity of DMSO to living cells. Human recombinant interleukin (IL) IL-2, IL-4, and human recombinant granulocyte/macrophage colony-stimulating factor (GM-CSF) were purchased from R&D Systems.
The cytotoxic activity of MAGE-D4 peptide-specific CTLs to glioma cells was determined according to the instructions of the manufacturers by our published method ([31]). […] Four hours later, suspended cells were collected for CD107a flow cytometry, meanwhile, the supernatant was collected and analyzed with granzyme A and perforin ELISA kit (Cloud-Clone Corporation, Wuhan, China) at 450 nm, and the LDH kit (Promega, USA) at 490 nm. The percentage of specific lysis was calculated using the following formula: [(experimental release − spontaneous release)/(maximum release − spontaneous release)] × 100. […] Then, the cytotoxicity assay was measured and calculated as mentioned above.

For another data set, the system named is MAGE-D4. The data set can be described thus: MAGE-D4 expression (qRT-PCR, Western blot) in U87. The note with it: U87, compared to the control (0.09% DMSO); 1 μM TSA 24 h. The method, then:
as §1, with “Decitabine (DAC, CAS No.” left out, “-80°C” for “−80°C”, “[…] Relative intensities of the bands were normalized with GAPDH” for “Human recombinant interleukin (IL) IL-2, IL-4,”, “analyzed by ImageJ (NIH, Maryland, USA).” for “human recombinant granulocyte/macrophage colony-stimulating factor (GM-CSF) were purchased from R&D Systems.”
(Quantitative PCR measures a nucleic acid by following its amplification.)

With CLPPPNVIL [Peptide P8], the “proliferation index (CFSE)” value with T cells (Figure 4B inset bottom left) is “highest”. Moreover, the “percentage of cells that divided at least once (CFSE)” value with T cells (Figure 4B inset top left) is listed as “highest”. The “number of IFN-γ secreting T cells (ELISPOT)” value with IFN-γ is listed as “more than that in others”. The “cytotoxicity of peptide-specific T cells (specific lysis, LDH)” value in the data set with U251 (DAC + TSA-treated U251, E:T 50:1, 4 h) is “cytotoxicity on the DAC + TSA-treated U251 cells with statistical significance”. Besides, in the data set with U251 (target cells pre-incubated with HLA-ABC antibody 50 μg/ml, 37°C 40 min, versus groups without anti-HLA antibodies, Figure 6I), the “killing efficiency after HLA I block” value was “significantly decreased”.

Turning to `CC(/C=C/C(=O)NO)=C\[C@@H](C)C(=O)c1ccc(N(C)C)cc1` [TSA, trichostatin A], the “MAGE-D4 mRNA and protein expression” value in the data set on MAGE-D4 is “higher”.
